What was measured:
[1] = system: ISR signature genes, including Atf5, Eif4ebp1 and Trib3; conditions: previously shown; cited from earlier work
[2] = previously shown; cited from earlier work
GDF15 [3] = assay: GDF15 protein levels in CSF and plasma of VWM mice treated with 2BAct; assay type: in vivo, mouse
Experimental: FIG. 2E and FIG. 2F show GDF15 protein levels determined in CSF (FIG. 2E) and plasma (FIG. 2F) in WT mice, VWM mice, and VWM mice treated with 2BAct for 4 months and 2 months after cessation of 2BAct treatment. *p<0.05, **p<0.01, ***p<0.001 by Mann Whitney.
(§1) In this example, a VWMD mouse model harboring a R191H mutation in eIF2B was used.
(§2) VWM mice and WT mice were treated with 2BAct at 30 mg/kg for four months in food pellets. Subsequently, expressions of ISR signature genes and GDF15 in the cerebellum were determined.

ISR signature genes = assay: Gene expression of the ISR signature in cerebellum and spinal cord of VWM mice treated with 2BAct; assay type: in vivo, mouse; conditions: 30 mg/kg in food pellets, four months
Experimental: (§3) FIGS. 2A and 2B depict gene expression of the ISR signature and GDF15 in the cerebellum (FIG. 2A) and spinal cord (FIG. 2B) of VWM mice and WT mice following 4 months of treatment with 30 mg/kg 2BAct in food pellets or control chow. Samples were also collected after a drug washout period of 2 months.
as §1, §2

GDF15 [4] = assay: GDF15 protein in astrocyte-derived exosomes (ADE) and neuron-derived exosomes (NDE) in plasma of VWM mice (immunoassay); assay type: in vivo, mouse
Experimental: GDF15 protein was quantified in astrocyte-derived exosomes (ADEs) or neuron-derived exosomes (NDEs) in plasma using immunoassay. ADEs and NDEs were captured with anti-GLAST antibody and anti-SNAP25 antibody, respectively. GLAST is an astrocyte specific cell-surface protein; SNAP25 is highly expressed on neuronal membrane. The detection of GDF15 was performed by incubation with a specific anti-GDF15 antibody followed by an anti-mouse IgG conjugated to Horseradish peroxidase.

GDF15 [5] = assay: GDF15 mRNA levels in the CNS (cerebellum, spinal cord) of VWM mice treated with 2BAct; assay type: in vivo, mouse; conditions: cerebellum and spinal cord, FIGS. 2C and 2D
Experimental: as §3
FIG. 2C and FIG. 2D show GDF15 mRNA levels determined in cerebellum (FIG. 2C) and spinal cord (FIG. 2D) in WT mice, VWM mice, and VWM mice treated with 2BAct for 4 months and 2 months after cessation of 2BAct treatment. *p<0.05, **p<0.01, ***p<0.001 by Mann Whitney.
as §1, §2

O=C(COc1ccc(Cl)c(F)c1)NC12CC(NC(=O)c3cnc(C(F)F)cn3)(C1)C2 [Compound 2BAct]
ISR signature genes, including Atf5, Eif4ebp1 and Trib3, in the brain [1]: suppress the ISR signature genes
motor deficit [2]: corrected motor deficit
CSF GDF15 levels after treatment (GDF15 [3]; 30 mg/kg in food pellets, 4-month treatment, FIG. 2E): suppressed
plasma GDF15 (GDF15 [3]; 30 mg/kg in food pellets, four months, FIG. 2F): did not affect plasma GDF15
CSF GDF15 levels following drug washout (GDF15 [3]; 2 months of drug washout after 4-month treatment, FIG. 2E): returned to pre-dose baseline levels
ISR gene expression signature in the cerebellum (ISR signature genes; FIG. 2A): inhibited the ISR gene expression signature
ISR gene expression signature in the spinal cord (ISR signature genes; FIG. 2B): inhibited the ISR gene expression signature
GDF15 expression in plasma ADE (GDF15 [4]; 30 mg/kg for 10 days, FIG. 7A): suppressed GDF15 expression in plasma ADE and NDE to the level present in WT mice
GDF15 expression in plasma NDE (GDF15 [4]; 30 mg/kg for 10 days, FIG. 7B): suppressed GDF15 expression in plasma ADE and NDE to the level present in WT mice
downmodulation of GDF15 expression on VWM ADE (GDF15 [4]; astrocyte derived exosomes, FIG. 7A): 2.7 fold
downmodulation of GDF15 expression on VWM NDE (GDF15 [4]; neuron derived exosomes, FIG. 7B): 1.7 fold
GDF15 mRNA levels in the CNS following treatment (GDF15 [5]; 30 mg/kg in food pellets, four months): markedly reduced
GDF15 mRNA levels in the CNS after cessation of treatment (GDF15 [5]; 2 months after cessation of 4-month treatment): rebounded to pre-treatment levels
